In US10426751B2, “Allosteric activators for treatment of phenylketonuria” (MCMASTER UNIVERSITY, priority 2015, dated 2019):

Key:
[1] = molecular target: T1, PAH (Homo sapiens, UniProt P00439); conditions: 100 μM; cited from earlier work
T1 sequence (P00439 1-452): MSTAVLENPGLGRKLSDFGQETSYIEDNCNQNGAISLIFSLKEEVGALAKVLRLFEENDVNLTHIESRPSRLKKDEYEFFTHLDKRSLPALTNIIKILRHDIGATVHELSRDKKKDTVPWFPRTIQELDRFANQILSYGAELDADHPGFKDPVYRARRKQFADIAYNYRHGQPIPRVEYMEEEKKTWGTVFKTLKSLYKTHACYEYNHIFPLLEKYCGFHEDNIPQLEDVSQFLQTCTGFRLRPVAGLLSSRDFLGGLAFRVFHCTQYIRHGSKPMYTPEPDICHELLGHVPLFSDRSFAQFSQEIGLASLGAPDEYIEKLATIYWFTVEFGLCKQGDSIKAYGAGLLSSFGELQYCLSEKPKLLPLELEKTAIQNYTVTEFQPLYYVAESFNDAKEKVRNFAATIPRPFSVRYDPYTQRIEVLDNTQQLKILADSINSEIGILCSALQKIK

[2] = molecular target: T2, PAH (Mus musculus, UniProt P16331); conditions: cited from earlier work
T2 construct: inducing a 2-fold enhancement in PAH activity in WT mouse liver; host or cells: liver of WT mice
T2 sequence (P16331 1-453): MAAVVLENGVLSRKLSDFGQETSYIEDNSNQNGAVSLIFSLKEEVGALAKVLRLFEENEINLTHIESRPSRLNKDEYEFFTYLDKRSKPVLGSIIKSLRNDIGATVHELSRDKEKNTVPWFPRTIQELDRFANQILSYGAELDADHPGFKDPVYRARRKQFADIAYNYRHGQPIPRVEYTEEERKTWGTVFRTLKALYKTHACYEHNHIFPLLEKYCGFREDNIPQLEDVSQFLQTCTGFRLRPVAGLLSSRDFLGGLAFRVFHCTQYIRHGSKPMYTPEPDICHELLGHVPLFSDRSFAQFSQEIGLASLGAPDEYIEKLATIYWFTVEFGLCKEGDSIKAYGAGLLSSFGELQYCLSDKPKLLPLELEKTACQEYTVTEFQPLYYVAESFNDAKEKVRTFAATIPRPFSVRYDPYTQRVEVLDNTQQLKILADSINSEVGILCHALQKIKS

[3] = molecular target: T3, WT-PAH (Homo sapiens, UniProt P00439); assay: Chaperone (refolding) assay: PAH activity after dilution from 6.0 M to 0.5 M GndCl; assay type: biochemical; conditions: ligand 20 μM
T3 construct: made in house; the paragraph itself says 'eukaryotic cell cultures' (pMAL vector, Martinez laboratory, University of Bergen)
T3 sequence (P00439 1-452): T1 sequence (P00439 1-452)
Protocol: For instance, a recovery of 50% of residual enzyme activity was achieved without ligand when PAH was incubated in 8.0 M urea after its dilution to 0.5 M urea to trigger protein refolding. In order to further reduce enzyme reversibility, the recovery of PAH activity was subsequently assessed when it was incubated using 6.0 M GndCl for 10 min and subsequently diluted to 0.5 M GndCl in the presence or absence of screen-positive ligands (20 μM) in enzyme reaction buffer with PAH activity measurements performed by CE as described previously. […] Two lead compounds and several analogs of SA were subsequently tested using two different mutants of PAH (I65T and R261Q) without chemical denaturants after the two-tiered screening.

[4] = molecular target: T3, WT-PAH; assay: Primary screen (READ): ligand-induced stabilization of PAH activity in 8 M urea, Tyr formation by CE-UV; assay type: biochemical; conditions: 8 M urea, ligand 20 μM; ligand-free enzyme (7±0.5) %
Protocol: Tetrameric human phenylalanine hydroxylase (PAH) enzyme kinetic assays were performed off-line under standardized conditions prior to quantification of Tyr formation by CE with UV detection. Enzyme assays were performed by first mixing together Phe (1 mM), catalase (100 nM) and PAH (0.25 μM/subunit) in a reaction buffer (20 mM HEPES and 200 mM NaCl, pH 7.0) that were equilibrated at 25° C. for 4 min. Then, ferrous (Fe^2+) ammonium sulfate (100 μM) was added to the solution for 1 min and the reaction was subsequently initiated by addition of BH4 ([…]) with DTT (5 mM) using a total volume of 100 μL. The reaction mixture was then vortexed for 60 s followed by sonication for 2 min prior to centrifugation for 10 s at 4 g and storage in a refrigerator (+4° C.). An aliquot (20 μL) was withdrawn from the quenched enzyme reaction and placed in a micro vial containing Me-Tyr as IS (100 μM) prior to CE analysis. The stability of the quenched enzyme reaction was confirmed by intermittent analysis of PAH activity over 6 h at room temperature, and no significant changes in the Tyr/IS or Phe/Tyr response ratio were measured. Enzymatic reactions were performed for both WT-PAH and two PAH mutants by pre-equilibrating each ligand for 10 min prior to addition of ferrous ion and BH4/DDT as described in enzyme reaction protocol in order to assess for ligand-induced PAH inhibition or activation.
Unlike thermal stability assays that can induce protein aggregation, chemical denaturants are more suitable as perturbants to promote unfolding and enzyme inactivation while solubilizing multimeric proteins. In this context, restoration of enzyme activity upon denaturation (READ) was first introduced to characterize PCs that stabilize yet enhance the activity of a lysosomal enzyme, β-glucocerebrosidase (GCase). Herein, READ was modified, further optimized and validated for primary screening of PCs for the cytosolic enzyme (PAH) using a chemical library containing structurally unique compounds with drug-like activity. For instance, the primary screen was used to measure ligand-induced stabilization of PAH by extrinsic small molecules that impart greater resistance to urea unfolding as compared to ligand-free apo-enzyme conditions. PAH activity was first examined as a function of urea concentration (0 to 8 M) and pre-equilibration time (10 min to 2 hr) in order to determine optimum conditions where residual enzyme activity was largely attenuated below 10% due to protein unfolding. Protein unfolding was performed in triplicate offline with the enzyme reaction buffer (20 mM HEPES and 200 mM NaCl, pH 7.0) using tetrameric human PAH (1 μM and/or 0.1 μM) or mutant PAH (1 μM and/or 0.1 μM) incubated 10 min in 0 M or 8 M urea in the presence or absence of ligand (20 μM). Dose-response studies (0, 2.0 and 20 μM) were subsequently performed in triplicate on screen-positive compounds using re-synthesized ligands in order to further validate initial screen results. In all cases, quenched enzyme reactions were processed as described previously prior to CE analysis. PAH activity measurements based on Tyr formation at 8M urea with the presence or absence of PC were normalized to 0 M urea for each aliquot enzyme reaction to minimize long-term variation, which also enables direct comparison of the ligand-induced stabilization activity under denaturing conditions (8M urea) while confirming inhibition and activation effects for ligands under native conditions (0 M urea).

Row | increase in WT-PAH activity after refolding relative to ligand-free apo-PAH [3] | PAH residual activity (% of WT-PAH) [4] [%] | SMILES | shift of denaturation temperature relative to ligand-free enzyme [1] | enhancement in PAH activity in WT mouse liver [2] [fold]
1 | about 5 fold | 19 | Nc1c(-c2ccc3ccccc3n2)c2ccc([N+](=O)[O-])cc2c(=O)n1Cc1ccccc1 [compound III, 3-amino-2-benzyl-7-nitro-4-(2-quinolyl)-1,2-dihydroisoquinolin-1-one] | greater than 14 °C | 2
2 | ~1.5 fold | 9 | Cc1ccnc(-n2c(=S)[nH]c3sc(C)c(C)c3c2=O)c1 [compound IV, 5,6-dimethyl-3-(4-methyl-2-pyridinyl)-2-thioxo-2,3-dihydrothieno[2,3-d] pyrimidin-4(1H)-one] | > 7 °C | 2
